Common to all, as to type: biochemical
The target in experiment [1] is T1, MMP-2 (Homo sapiens, UniProt P08253).
T1 construct: purchased Abchem (so in the source)
T1 sequence (P08253 110-660): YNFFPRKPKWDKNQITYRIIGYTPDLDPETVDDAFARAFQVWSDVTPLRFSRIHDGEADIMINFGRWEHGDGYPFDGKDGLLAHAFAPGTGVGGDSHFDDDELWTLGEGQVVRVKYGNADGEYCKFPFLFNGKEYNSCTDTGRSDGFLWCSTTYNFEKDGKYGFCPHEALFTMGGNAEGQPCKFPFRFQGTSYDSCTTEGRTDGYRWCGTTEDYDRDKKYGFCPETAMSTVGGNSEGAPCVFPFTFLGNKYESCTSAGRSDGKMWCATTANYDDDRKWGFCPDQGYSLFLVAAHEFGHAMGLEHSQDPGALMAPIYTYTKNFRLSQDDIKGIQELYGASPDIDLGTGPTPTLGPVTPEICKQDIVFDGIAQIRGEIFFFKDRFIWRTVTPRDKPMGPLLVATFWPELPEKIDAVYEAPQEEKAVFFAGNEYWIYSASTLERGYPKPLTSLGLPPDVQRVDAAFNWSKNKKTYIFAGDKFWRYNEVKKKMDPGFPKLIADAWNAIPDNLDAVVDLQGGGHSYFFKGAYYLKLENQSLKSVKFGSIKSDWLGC
Description: MMP2 Inhibitor Screening Assay Kit (ab139446), colorimetric thiopeptide substrate, OD412. The settings on record: compound at 50 nM; for remaining activity at 0.05 µM: remaining enzyme activity, untreated group = 100%, n=2. The procedure: Enzyme activity (%) at the same concentration was compared with treatment with 0.5 µM MMP-1 activity and 50 nM MMP-2 and MMP-9 activity (n=2). Here, enzyme activity (%) refers to the enzyme activity (%) of the experimental group when the untreated group is considered to have 100% enzyme activity. To evaluate the effect of the new compound on the enzyme activity, the color change was measured by following the provided protocol using a kit sold by Abchem as follows. […] Therefore, the change in OD412 level (OD value) per minute was measured and the value was obtained according to the enzyme activity calculation formula below. […] (ε=13,600 M^-1cm^-1 above pH 6.0) New compound enzyme activity(%) = (Vnew compound/Vuntreated group)*100 [formula] V = change in OD value per minute

Experiment [2] addresses T2, MMP-9 (Homo sapiens, UniProt P14780).
T2 construct: purchased Abchem (so in the source)
Description: MMP9 Inhibitor Screening Assay Kit (ab139448), colorimetric thiopeptide substrate, OD412. Particulars: compound at 50 nM; for remaining activity at 0.05 µM: remaining enzyme activity, untreated group = 100%, n=2. The procedure: Enzyme activity (%) at the same concentration was compared with treatment with 0.5 µM MMP-1 activity and 50 nM MMP-2 and MMP-9 activity (n=2). Here, enzyme activity (%) refers to the enzyme activity (%) of the experimental group when the untreated group is considered to have 100% enzyme activity. To evaluate the effect of the new compound on the enzyme activity, the color change was measured by following the provided protocol using a kit sold by Abchem as follows. Enzyme activity was obtained by comparing absorbance per minute with the untreated group. • MMP1 Inhibitor Screening Assay Kit (ab139443) • MMP2 Inhibitor Screening Assay Kit (ab139446) • MMP9 Inhibitor Screening Assay Kit (ab139448) As MMP activity increases, the substrate is decomposed and the OD412 level increases. Therefore, the change in OD412 level (OD value) per minute was measured and the value was obtained according to the enzyme activity calculation formula below. Here, OD412 means optical density or absorbance at 412 nm. • Thiopeptide (Ac-PLG-[2-mercapto-4-methyl-pentanoyl]-LG-OC2H5) as a chromogenic substrate. • The MMP cleavage site peptide bond was replaced by the thioester bond of the thiopeptide. • Hydrolysis of this bond by MMP generates a sulfhydryl group, which reacts with DTNB [5,5'-dithiobis(2-nitrobenzoic acid), Ellman's reagent] to form 2-nitro-5-thiobenzoic acid. , which can be measured by its absorbance at 412 nm. (ε=13,600 M^-1cm^-1 above pH 6.0) New compound enzyme activity(%) = (Vnew compound/Vuntreated group)*100 [formula] V = change in OD value per minute

Experiment [3] deals with T2, MMP-9. The experiment is described as above. Particulars: T-23~34 at 0.5 uM; for inhibition at 0.5 µM: read-out: MMP-9 (%) (inhibitory efficacy, high concentration); for remaining activity at 0.5 µM: remaining enzyme activity, read-out: MMP-9 (%) (enzyme activity, high concentration).
A further experiment has as its target T3, MMP-1 (Homo sapiens, UniProt P03956).
T3 construct: purchased Abchem (so in the source)
T3 sequence (P03956 100-269 limits assumed): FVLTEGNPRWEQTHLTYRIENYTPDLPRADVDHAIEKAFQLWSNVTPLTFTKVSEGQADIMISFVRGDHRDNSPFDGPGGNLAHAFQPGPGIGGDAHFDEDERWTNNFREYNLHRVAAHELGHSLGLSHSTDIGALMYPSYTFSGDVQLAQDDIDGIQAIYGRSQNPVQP
Description: MMP1 Inhibitor Screening Assay Kit (ab139443), colorimetric thiopeptide substrate, OD412. The settings on record: for inhibition at 5 µM / remaining activity at 5 µM: T-23~34 at 5 uM; for inhibition at 5 µM / inhibition at 10 µM: read-out: MMP-1 (%) (inhibitory efficacy, high concentration); for remaining activity at 0.5 µM / remaining activity at 5 µM / remaining activity at 10 µM: remaining enzyme activity; for remaining activity at 0.5 µM: untreated group = 100%, n=2; for remaining activity at 5 µM / remaining activity at 10 µM: read-out: MMP-1 (%) (enzyme activity, high concentration); for inhibition at 10 µM / remaining activity at 10 µM: T-05~20 at 10 uM. The procedure:
Enzyme activity (%) at the same concentration was compared with treatment with 0.5 µM MMP-1 activity and 50 nM MMP-2 and MMP-9 activity (n=2). Here, enzyme activity (%) refers to the enzyme activity (%) of the experimental group when the untreated group is considered to have 100% enzyme activity.
To evaluate the effect of the new compound on the enzyme activity, the color change was measured by following the provided protocol using a kit sold by Abchem as follows.
As MMP activity increases, the substrate is decomposed and the OD412 level increases. Therefore, the change in OD412 level (OD value) per minute was measured and the value was obtained according to the enzyme activity calculation formula below. […] (ε=13,600 M^-1cm^-1 above pH 6.0)
New compound enzyme activity(%) = (Vnew compound/Vuntreated group)*100 [formula] V = change in OD value per minute

The target in experiment [4] is T1, MMP-2. Description: MMP2 Inhibitor Screening Assay Kit (ab139446), colorimetric thiopeptide substrate, OD412. The settings on record: for inhibition at 0.5 µM / remaining activity at 0.5 µM: T-23~34 at 0.5 uM; for inhibition at 0.5 µM / inhibition at 10 µM: read-out: MMP-2 (%) (inhibitory efficacy, high concentration); for remaining activity at 0.5 µM / remaining activity at 10 µM: remaining enzyme activity, read-out: MMP-2 (%) (enzyme activity, high concentration); for inhibition at 10 µM / remaining activity at 10 µM: T-05~20 at 10 uM.

T2 sequence (P14780 94-707): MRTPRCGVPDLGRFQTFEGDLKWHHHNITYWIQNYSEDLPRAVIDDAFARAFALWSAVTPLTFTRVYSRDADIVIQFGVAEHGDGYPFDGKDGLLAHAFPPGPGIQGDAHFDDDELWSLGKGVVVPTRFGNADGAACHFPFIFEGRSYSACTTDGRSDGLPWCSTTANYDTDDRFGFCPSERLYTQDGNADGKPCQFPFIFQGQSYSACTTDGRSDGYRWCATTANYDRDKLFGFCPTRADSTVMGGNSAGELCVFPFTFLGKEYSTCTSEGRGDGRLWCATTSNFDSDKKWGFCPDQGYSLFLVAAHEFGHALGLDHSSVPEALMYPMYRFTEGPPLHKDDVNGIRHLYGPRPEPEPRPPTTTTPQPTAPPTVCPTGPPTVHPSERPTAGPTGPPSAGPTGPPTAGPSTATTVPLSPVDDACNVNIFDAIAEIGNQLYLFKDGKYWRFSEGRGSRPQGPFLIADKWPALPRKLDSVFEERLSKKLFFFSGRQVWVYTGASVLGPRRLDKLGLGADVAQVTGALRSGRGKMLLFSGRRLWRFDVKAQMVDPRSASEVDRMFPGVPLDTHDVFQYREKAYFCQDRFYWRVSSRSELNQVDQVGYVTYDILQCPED

Regarding `O=C(NO)C1CCCCN1S(=O)(=O)c1ccc(C23CC4CC(CC(C4)C2)C3)cc1` (centres unmarked) [T-23, 1-((4-((3r,5r,7r)-adamantan-1-yl)phenyl)sulfonyl)-N-hydroxypiperidine-2-carboxamide], the remaining activity at 0.05 µM on MMP-2 [1] and on MMP-9 [2] was 100% each time. Moreover, the inhibition at 0.5 µM at MMP-9 [3] and at MMP-2 [4] was 0% in each case. The remaining activity at 0.5 µM at MMP-9 [3], at MMP-1 (compound at 0.5 uM) and on MMP-2 [4] was 100% each time. Besides, the inhibition at 5 µM at MMP-1 (inhibition) worked out at 0%. In addition, the remaining activity at 5 µM at MMP-1 came to 100%.

Take `CC(C)(C)c1ccc(S(=O)(=O)N2CCCC2C(=O)NO)cc1` (centres unmarked) [T-28, 1-((4-(tert-butyl)phenyl)sulfonyl)-N-hydroxypyrrolidine-2-carboxamide]: the remaining activity at 0.05 µM on MMP-2 [1] and at MMP-9 [2] was 100% in each case. For the same compound, the inhibition at 0.5 µM at MMP-9 [3] and on MMP-2 [4] was 0% throughout. Moreover, the remaining activity at 0.5 µM on MMP-9 [3], at MMP-1 (compound at 0.5 uM) and on MMP-2 [4] was 100% in each case. Further, at MMP-1 (inhibition), the inhibition at 5 µM is 0%. In addition, the remaining activity at 5 µM at MMP-1 stood at 100%.

Take `CC(=O)Nc1ccc(S(=O)(=O)N2CCCCC2C(=O)NO)cc1` (centres unmarked) [T-25, 1-((4-acetamidophenyl)sulfonyl)-N-hydroxypiperidine-2-carboxamide]: the inhibition at 0.05 µM at MMP-2 [1] (inhibition, read-out: MMP-2 (%) at 50 nM (inhibitory activity)) turned out to be 0%. Besides, the remaining activity at 0.05 µM on MMP-2 [1] and at MMP-9 [2] was 100% in each case. The inhibition at 0.5 µM on MMP-9 [3] was determined as 20.6%; at MMP-1 (inhibition, compound at 0.5 uM, read-out: MMP-1 (%) at 0.5 uM (inhibitory activity)), 0%; on MMP-2 [4], 38.3%. Also, the remaining activity at 0.5 µM at MMP-9 [3] was found to be 79.4%; at MMP-1 (compound at 0.5 uM), 100%; at MMP-2 [4] it was 61.7%. Also, the inhibition at 5 µM at MMP-1 (inhibition) was determined as 14.2%. Besides, the remaining activity at 5 µM on MMP-1 worked out at 85.8%.

In the case of `CCCc1ccc(S(=O)(=O)N2CCCC2C(=O)NO)cc1` (centres unmarked) [T-33, N-hydroxy-1-((4-propylphenyl)sulfonyl)pyrrolidine-2-carboxamide], the results for the remaining activity at 0.05 µM on MMP-2 [1] and on MMP-9 [2] were 90.5% and 100%, respectively. On MMP-9 [2] (inhibition, read-out: MMP-9 (%) at 50 nM (inhibitory activity)), the inhibition at 0.05 µM came to 0%. The inhibition at 0.5 µM amounted to 22.2% at MMP-9 [3] and 26.3% on MMP-2 [4]. Besides, the remaining activity at 0.5 µM on MMP-9 [3] came to 77.8%; on MMP-1 (compound at 0.5 uM), 100%; on MMP-2 [4] it was 73.7%. The inhibition at 5 µM on MMP-1 (inhibition) came to 26.1%. Also, the remaining activity at 5 µM on MMP-1 amounted to 73.9%.

Turning to `CC(C)CC(NS(=O)(=O)c1ccc(C(C)(C)C)cc1)C(=O)NO` (centres unmarked) [T-13, 2-((4-(tert-butyl)phenyl)sulfonamido)-N-hydroxy-4-methylpentanamide], the remaining activity at 0.05 µM on MMP-2 [1] and on MMP-9 [2] was 100% throughout. In addition, the inhibition at 10 µM on MMP-1 (inhibition) was determined as 0%; at MMP-2 [4] it was 71.9%. The remaining activity at 0.5 µM at MMP-1 (compound at 0.5 uM) worked out at 100%. The remaining activity at 10 µM on MMP-1 amounted to 100%; at MMP-2 [4] it was 28.1%.

As for `CC(=O)c1ccc(S(=O)(=O)N2CCCC2C(=O)NO)cc1` (centres unmarked) [T-34, 1-((4-acetylphenyl)sulfonyl)-N-hydroxypyrrolidine-2-carboxamide], the remaining activity at 0.05 µM at MMP-2 [1] and at MMP-9 [2] was 100% in each case. The values for the inhibition at 0.5 µM at MMP-9 [3] and on MMP-2 [4] were 30.1% and 37.8%, respectively. Further, the remaining activity at 0.5 µM on MMP-9 [3] was 69.9%; at MMP-1 (compound at 0.5 uM), 100%; on MMP-2 [4], 62.2%. In addition, the inhibition at 5 µM on MMP-1 (inhibition) stood at 58.2%. Moreover, the remaining activity at 5 µM at MMP-1 was 41.8%.

Take `Cc1cc(C)c(S(=O)(=O)NC(CC(C)C)C(=O)NO)c(C)c1` (centres unmarked) [T-15, N-hydroxy-4-methyl-2-((2,4,6-trimethylphenyl)sulfonamido)pentanamide]: the remaining activity at 0.05 µM on MMP-2 [1] and on MMP-9 [2] was 100% in each case. The inhibition at 10 µM at MMP-1 (inhibition) came to 0%; at MMP-2 [4] it was 34.8%. Moreover, the remaining activity at 0.5 µM on MMP-1 (compound at 0.5 uM) turned out to be 100%. In addition, the figures for the remaining activity at 10 µM at MMP-1 and on MMP-2 [4] were 100% and 65.2%, respectively.

Turning to `O=C(NO)C1CCCN1S(=O)(=O)c1ccc(C23CC4CC(CC(C4)C2)C3)cc1` (centres unmarked) [T-32, 1-((4-((3r,5r,7r)-adamantan-1-yl)phenyl)sulfonyl)-N-hydroxypyrrolidine-2-carboxamide], the remaining activity at 0.05 µM at MMP-2 [1] and at MMP-9 [2] was 100% throughout. Also, the inhibition at 0.5 µM was 11.9% on MMP-9 [3] and 7.6% at MMP-2 [4]. Also, the remaining activity at 0.5 µM on MMP-9 [3] is 88.1%; on MMP-1 (compound at 0.5 uM), 100%; on MMP-2 [4], 92.4%. In addition, the inhibition at 5 µM on MMP-1 (inhibition) turned out to be 0%. Moreover, the remaining activity at 5 µM at MMP-1 is 100%.

The record behind these values is patent EP4692062A1, “NOVEL AMIDE-BASED COMPOUND AND COMPOSITION COMPRISING SAME” (Amorepacific Corporation, priority 2023, dated 2024).
